Assay results published in patent publication US20230037414A1, “INHIBITORS OF ADRENOMEDULLIN FOR THE TREATMENT OF ACUTE MYELOID LEUKEMIA BY ERADICATING LEUKEMIC STEM CELLS” (INSERM (INSTITUT NATIONAL DE LA SANTÉ ET DE LA RECHERCHE …, priority 2019, published 2023).

Key:
[1] = tested on: MOLM-14 cells; test: EC50 experiments (MTS cell viability) on MOLM-14 cells FACS-sorted from xenografted mice; type: cell-based; settings: Homo sapiens, MOLM-14, 168 h, after one week of in vitro culture
Protocol: The day before experiment, cells were adjusted to 3×10^5 cells/ml final concentration and plated in a 96-well plate (final volume: […]). To measure half-maximal inhibitory concentration (EC50), increased concentrations of AraC or idarubicin were added to the medium. After two days, 20 µl per well of MTS solution (Promega) was added for two hours and then absorbance was recorded at 490 nm with a 96-well plate reader. The doses that decrease cell viability to 50% (EC50) were analyzed Nonlinear regression log [inhibitor] vs. normalized response-variable slope with GraphPad Prism software.

[2] = tested on: primary AML samples; test: PDX model of AraC treatment in AML (NSG mice); type: in vivo
Protocol: NSG mice were produced at the Genotoul Anexplo platform at Toulouse (France) using breeders obtained from Charles River Laboratories. Transplanted mice were treated with antibiotic (Baytril) for the duration of the experiment. For experiments assessing the response to chemotherapy in PDX models, mice (6-9 weeks old) were sublethally treated with busulfan (30 mg/kg) 24 hours before injection of leukemic cells. Leukemia samples were thawed in 37° C. water bath, washed in IMDM 20% FBS, and suspended in Hank's Balanced Salt Solution at a final concentration of 1-10×10^6 cells per 200 μL for tail vein injection in NSG mice. Eight to 18 weeks after AML cell transplantation and when mice were engrafted (tested by flow cytometry on peripheral blood or bone marrow aspirates), NSG mice were treated by daily intraperitoneal injection of 60 mg/kg AraC or vehicle (PBS) for 5 days. AraC was kindly provided by the pharmacy of the TUH. Mice were sacrificed at day 8 to harvest human leukemic cells from murine bone marrow. For AML cell lines, 24 hours before injection of leukemic cells mice were treated with busulfan (20 mg/kg). Then cells were thawed and washed as previously described, suspended in HBSS at a final concentration of 2×106 per 200 μL before injection into bloodstream of NSG mice. […] Daily monitoring of mice for symptoms of disease (ruffled coat, hunched back, weakness, and reduced mobility) determined the time of killing for injected animals with signs of distress.
At the end of experiment, NSG mice were humanely killed in accordance with European ethics protocols. […] The number of AML cells/μL peripheral blood and number of AML cells in total cell tumor burden (in bone marrow and spleen) were determined by using CountBright beads (Invitrogen) using described protocol.
Proteins were resolved using 4% to 12% polyacrylamide gel electrophoresis Bis-Tris gels (Life Technology, Carlsbad, Calif.) and electrotransferred to nitrocellulose membranes. […] Quantification of chemiluminescent signals was done with the GeneTools software from Syngene.

[3] = MOLM-14 shCTR cells from AraC treated mice
[4] = MOLM-14 shCTR cells from vehicle-treated mice

Row | EC50 [1, 3] | EC50 [1, 4] | Structure (SMILES) | percentage of human cells in the bone marrow of mice ([2]; AraC vs PBS treated mice) | levels of secreted ADM in the bone marrow of mice ([2]; bone marrow supernatant, western blot, AraC vs PBS) | percentage of positive blasts for CALCRL ([2]; minimal residual disease after 60 mg/kg/day AraC for 5 days, day 8, 5.6% without AraC)
1 | 7000 nM | 2000 nM | Nc1ccn([C@@H]2O[C@H](CO)[C@@H](O)[C@@H]2O)c(=O)n1 [AraC, cytarabine] | reduced | reduced | 23%
2 | 61 nM | 29 nM | CC(=O)[C@]1(O)Cc2c(O)c3c(c(O)c2[C@@H](O[C@H]2C[C@H](N)[C@H](O)[C@H](C)O2)C1)C(=O)c1ccccc1C3=O [idarubicin] | – | – | –
